For this test, the system named is CD8+ T cells. As to the kind of experiment: In vitro immunogenicity of HLA-A*24 class I peptides: in vitro T-cell priming with aAPCs loaded with peptide/MHC complexes and anti-CD28 antibody, pMHC multimer readout. In kind it is cell-based, human. Particulars: given as a class symbol; for Donors: share of positive donors in the in vitro immunogenicity experiments; for Wells: share of positive wells in the in vitro immunogenicity experiments. As for the experimental part: In order to obtain information regarding the immunogenicity of the TUMAPs of the present invention, we performed investigations using an in vitro T-cell priming assay based on repeated stimulations of CD8+ T cells with artificial antigen presenting cells (aAPCs) loaded with peptide/MHC complexes and anti-CD28 antibody.
Isolated CD8+ lymphocytes or PBMCs were incubated until use in T-cell medium (TCM) consisting of RPMI-Glutamax (Invitrogen, Karlsruhe, Germany) supplemented with 10% heat inactivated human AB serum (PAN-Biotech, Aidenbach, Germany), 100 U/ml Penicillin/100 μg/ml Streptomycin (Cambrex, Cologne, Germany), 1 mM sodium pyruvate (CC Pro, Oberdorla, Germany), 20 μg/ml Gentamycin (Cambrex). 2.5 ng/ml IL-7 (PromoCell, Heidelberg, Germany) and 10 U/ml IL-2 (Novartis Pharma, Nurnberg, Germany) were also added to the TCM at this step. Generation of pMHC/anti-CD28 coated beads, T-cell stimulations and readout was performed in a highly defined in vitro system using four different pMHC molecules per stimulation condition and 8 different pMHC molecules per readout condition. All pMHC complexes used for aAPC loading and cytometric readout were derived from UV-induced MHC ligand exchange with minor modifications. In order to determine the amount of pMHC monomer obtained by exchange we performed streptavidin-based sandwich ELISAs according to (Rodenko et al., 2006). The purified co-stimulatory mouse IgG2a anti human CD28 Ab 9.3 (Jung et al., 1987) was chemically biotinylated using Sulfo-N-hydroxysuccinimidobiotin as recommended by the manufacturer (Perbio, Bonn, Germany). Beads used were 5.6 μm diameter streptavidin coated polystyrene particles (Bangs Laboratories, Illinois, USA).
800.000 beads/200 μl were coated in 96-well plates in the presence of 4×12.5 ng different biotin-pMHC, washed and 600 ng biotin anti-CD28 were added subsequently in a volume of 200 μl. Stimulations were initiated in 96-well plates by co-incubating 1×10^6 CD8+ T cells with 2×10^5 washed coated beads in 200 μl TCM supplemented with 5 ng/ml IL-12 (PromoCell) for 3-4 days at 37° C. Half of the medium was then exchanged by fresh TCM supplemented with 80 U/ml IL-2 and incubating was continued for 3-4 days at 37° C. This stimulation cycle was performed for a total of three times, with 12 individual wells per condition For the pMHC multimer readout using 8 different pMHC molecules per condition, a two-dimensional combinatorial coding approach was used as previously described (Andersen et al., 2012) with minor modifications encompassing coupling to 5 different fluorochromes. Finally, multimeric analyses were performed by staining the cells with Live/dead near IR dye (Invitrogen, Karlsruhe, Germany), CD8-FITC antibody clone SK1 (BD, Heidelberg, Germany) and fluorescent pMHC multimers. For analysis, a BD LSRII SORP cytometer equipped with appropriate lasers and filters was used. Peptide specific cells were calculated as percentage of total CD8+ cells. Evaluation of multimeric analysis was done using the FlowJo software (Tree Star, Oregon, USA). In vitro priming of specific multimer+ CD8+ lymphocytes was detected by comparison to irrelevant control stimulations.
Exemplary flow cytometry results after TUMAP-specific multimer staining for two peptides of the invention are shown in FIG. 4 together with corresponding negative controls.

Consider “PFAKPLPTF (listed as Homo sapiens) [EP4-001]”, for which the Donors result is reported as “++ (20%-49 % = ++)” and the Wells result was “+ (<20% = +)”.
The corresponding values for “YYLDKSVSI (listed as Homo sapiens) [SCARA3-002]” are “++ (20%-49 % = ++)” and “+ (<20% = +)”.
In the same order, the values of “QWAPILANF (listed as Homo sapiens) [NKA-001]” are “++ (20%-49 % = ++)” and “+ (<20% = +)”.
In the same order, the values of “YYHFIFTTL (listed as Homo sapiens) [GRIK3-002]” are “++++ (>70% = ++++)” and “+ (<20% = +)”.
On to “VYLKEANAI (listed as Homo sapiens) [KIF1B-001]”, for which the Donors result was “++ (20%-49 % = ++)” and the Wells entry is listed as “+ (<20% = +)”.
On to “FYGPQVNNI (listed as Homo sapiens) [WASL-001]”, for which the Donors entry was “++++ (>70% = ++++)” and the Wells entry is given as “+ (<20% = +)”.
The corresponding values for “VYQVLQEHL (listed as Homo sapiens) [BMP7-001]” are “++ (20%-49 % = ++)” and “+ (<20% = +)”.
The corresponding values for “VYLTIKPLNL (listed as Homo sapiens) [EFCAB7-001]” are “++ (20%-49 % = ++)” and “+ (<20% = +)”.
In the same order, the values of “VYNDIGKEMLL (listed as Homo sapiens) [KIF1B-002]” are “++ (20%-49 % = ++)” and “+ (<20% = +)”.
“VYYFHPQYL (listed as Homo sapiens) [ST8SIA5-001]”: the Donors entry is given as “++++ (>70% = ++++)” and the Wells result is reported as “++ (20%-49 % = ++)”.
As for “KYFSFPGEL (listed as Homo sapiens) [SLC-002]”, the Donors entry is on record as “++ (20%-49 % = ++)” and the Wells entry is reported as “+ (<20% = +)”.
In the same order, the values of “TYIIKSVGF (listed as Homo sapiens) [UNKN-003]” are “++ (20%-49 % = ++)” and “+ (<20% = +)”.
The corresponding values for “NYIDNVGNLHF (listed as Homo sapiens) [LNX1-001]” are “++ (20%-49 % = ++)” and “+ (<20% = +)”.
For “YYTVRNFTL (listed as Homo sapiens) [PTP-014]”, the Donors result is listed as “++ (20%-49 % = ++)” and the Wells entry is “+ (<20% = +)”.
In the same order, the values of “AFSPDSHYLLF (listed as Homo sapiens) [ITGA7-001]” are “++ (20%-49 % = ++)” and “+ (<20% = +)”.
In the same order, the values of “EYIRALQQL (listed as Homo sapiens) [ASCL1-001]” are “++ (20%-49 % = ++)” and “+ (<20% = +)”.
With “ZNFS3-001 (RYLPSSVFL; listed as Homo sapiens)”, the Donors result is “+++ (50%-70% = +++)” and the Wells result is “++ (20%-49 % = ++)”.
On to “NYNDRYDEI (listed as Homo sapiens) [RPL-001]”, for which the Donors entry is on record as “++ (20%-49 % = ++)” and the Wells entry is on record as “+ (<20% = +)”.
In the same order, the values of “RYQESLGNTVF (listed as Homo sapiens) [PJA2-001]” are “++ (20%-49 % = ++)” and “+ (<20% = +)”.
Consider “RYLPSSVFL (listed as Homo sapiens) [ZNF749-001]”, for which the Donors result is given as “++ (20%-49 % = ++)” and the Wells result is given as “+ (<20% = +)”.
The corresponding values for “KYNLINEYF (listed as Homo sapiens) [HS2-001]” are “++ (20%-49 % = ++)” and “+ (<20% = +)”.
In the same order, the values of “EYMKALGVGF (listed as Homo sapiens) [FABP7-002]” are “++ (20%-49 % = ++)” and “+ (<20% = +)”.
In the same order, the values of “LYIYPQSLNF (listed as Homo sapiens) [DOCK7-002]” are “+++ (50%-70% = +++)” and “+ (<20% = +)”.
As for “HYKPTPLYF (listed as Homo sapiens) [SMC4-001]”, the Donors result is “++ (20%-49 % = ++)” and the Wells entry is given as “+ (<20% = +)”.
In the same order, the values of “AYVLRLETL (listed as Homo sapiens) [PNMA2-001]” are “++ (20%-49 % = ++)” and “+ (<20% = +)”.
The corresponding values for “KFAEEFYSF (listed as Homo sapiens) [CDCA7L-001]” are “++ (20%-49 % = ++)” and “+ (<20% = +)”.

The record behind these values is patent US11607446B2, “Personalized immunotherapy against several neuronal and brain tumors” (Immatics Biotechnologies GmbH, priority 2013, dated 2023).
